In patent publication US20150099753A1, “FORM 5 POLYMORPH OF 7-(TERT-BUTYL-D9)-3-(2,5-DIFLUOROPHENYL)-6-((1-METHYL-1H-1,2,4-TRIAZOL-5-YL)METHOXY)-[1,2,4]TRIAZOLO[4,3-B]PYRIDAZINE” (Concert Pharmaceuticals Inc., priority 2012, published 2015):

What was measured:
Format in all cases: physicochemical
[1] = Dynamic Vapor Sorption (DVS) analysis; settings: DVS at 25° C., 0% RH to 90% RH cycles
Protocol: Dynamic Vapor Sorption (DVS). DVS experiments were conducted on a Surface Measurement Systems DVS-HT at 25° C. The instrument was operated in step mode and the relative humidity was increased in 10% RH increments from 40% RH to 90% RH, then decreased from 90% RH to 0% RH, then increased from 0% RH to 90% RH, then decreased from 90% RH to 0% RH. An extra step at 75% RH was included in each cycle. The mass equilibrium criterion was set at 0.005% change in mass over time (dm/dt) prior to each humidity level. A minimum step time of 10 minutes and a maximum step time of 240 minutes were specified.

[2] = Relative thermodynamic stability of non-solvated forms (ripening studies); settings: temperatures from between 22° C. and 70° C.
Protocol: Excess Form 1 was combined with EtOH (1.8 mL) and the suspension was stirred at 57° C. for 6 hrs. The suspension was allowed to settle, and the saturated EtOH solution was isolated, and added into a 2-mL vial containing a mixture of Forms 1, Form 3, and Form 4 ([…] of each). The suspension was stirred at 57° C. for 24 hrs. The solid was isolated on a Büchner funnel and air-dried for ˜6 hrs.
Once the above preparation of Form 5 was obtained, additional Form 5 was produced as follows. Form 1 (100 mg) was weighed into a […] 4-mL vial containing a stir-bar. EtOH (4-mL) was added and the suspension was stirred for 12 hrs and at 25° C. The suspension was filtered and the filtrate (1.8 mL) was added into a 2-mail vial containing equivalent amounts (10 mg) of Forms 3, 4, and 5. An aliquot of the suspension was immediately sampled; the solid was isolated by filtration, and analyzed by PXRD to verify the crystal-form. The suspension was stirred at 25° C. for an additional 24 hrs. A second aliquot was sampled; the solid was isolated by filtration, and analyzed to verify the crystal-form. […]
Once Form 5 crystals were isolated they were used to prepare additional Form 5 as follows. […] The solid was isolated on a Büchner funnel and air-dried for ˜6 hrs and determined to be Form 5.

[3] = Crystal form stability when suspended and stirred in MeOH:water; settings: stirred for 72 hours at ambient temperature
[4] = Physical (crystal form) stability on exposure to ambient conditions or relative humidity

SMILES: [2H]C([2H])([2H])C(c1cc2nnc(-c3cc(F)ccc3F)n2nc1OCc1ncnn1C)(C([2H])([2H])[2H])C([2H])([2H])[2H] [Form 5, 7-(tert-Butyl-d9)-3-(2,5-difluorophenyl)-6-((1-methyl-1H-1,2,4-triazol-5-yl)methoxy)-[1,2,4]triazolo[4,3-b]pyridazine]
- DVS weight gain (hygroscopicity; non-hygroscopic) [1]: < 0.4 % wt. gain
- thermodynamic stability relative to other non-solvated forms (Forms 1, 3 and 4) [2]: more thermodynamically stable than any of the other non-solvated forms
- crystal form conversion in suspension ([3]; suspended in MeOH:water 95:5% volume): converts to Form 2
- crystal form conversion in suspension ([3]; suspended in MeOH:water 98:2% volume): converts to Form 2
- physical stability ([4]; exposed to 75% relative humidity for 5 days): physically stable
- physical stability ([4]; exposed to 97% RH for 5 days at room temperature): physically unstable and partially converts to hydrated crystal Form 2
- physical stability ([4]; exposed to ambient conditions for at least 7 days): physically stable
